In patent publication US9303033B2, “Pyrazolopyrimidines and related heterocycles as CK2 inhibitors” (SENHWA BIOSCIENCES, INC., priority 2009, dated 2016):
One block for each compound: values may come before it.

Tests used:
[1] = biological target: CK2 ααββ (Homo sapiens (Human), UniProt P68400); test: CK2 assay (cell-free, 33P-ATP, phosphocellulose filter plate); type: biochemical
[2] = biological target: recombinant human PIM2 (Homo sapiens (Human), UniProt Q9P1W9); test: PIM-2 assay (33P-ATP filter binding); type: biochemical; settings: for IC50: PIM2: IC50 (5 μM ATP), 5 μM ATP; for PIM2: % inh […]: at […] compound
Sequence of recombinant human PIM2 (Q9P1W9 whole entry): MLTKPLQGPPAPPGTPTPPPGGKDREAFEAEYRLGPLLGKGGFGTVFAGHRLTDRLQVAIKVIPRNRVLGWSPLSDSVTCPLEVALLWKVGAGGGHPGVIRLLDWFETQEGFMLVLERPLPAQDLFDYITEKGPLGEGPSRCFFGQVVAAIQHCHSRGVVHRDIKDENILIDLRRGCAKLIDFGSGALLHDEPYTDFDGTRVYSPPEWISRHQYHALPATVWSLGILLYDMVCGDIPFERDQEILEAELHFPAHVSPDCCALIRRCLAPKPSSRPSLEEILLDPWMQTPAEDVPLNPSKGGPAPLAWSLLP

Sequence of CK2 ααββ (P68400 whole entry): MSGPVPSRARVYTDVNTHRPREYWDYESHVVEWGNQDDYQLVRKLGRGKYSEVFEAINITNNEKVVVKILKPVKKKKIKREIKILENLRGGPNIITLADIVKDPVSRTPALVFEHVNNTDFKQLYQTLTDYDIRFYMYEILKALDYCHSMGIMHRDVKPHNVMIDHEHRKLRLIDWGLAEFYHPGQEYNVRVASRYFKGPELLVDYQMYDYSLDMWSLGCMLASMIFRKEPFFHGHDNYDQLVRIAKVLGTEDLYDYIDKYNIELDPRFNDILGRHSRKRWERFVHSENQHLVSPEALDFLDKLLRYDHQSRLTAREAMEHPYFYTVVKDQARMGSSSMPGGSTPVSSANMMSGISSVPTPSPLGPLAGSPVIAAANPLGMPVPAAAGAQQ
Sequence of CK2 ααββ (P67870 whole entry partner): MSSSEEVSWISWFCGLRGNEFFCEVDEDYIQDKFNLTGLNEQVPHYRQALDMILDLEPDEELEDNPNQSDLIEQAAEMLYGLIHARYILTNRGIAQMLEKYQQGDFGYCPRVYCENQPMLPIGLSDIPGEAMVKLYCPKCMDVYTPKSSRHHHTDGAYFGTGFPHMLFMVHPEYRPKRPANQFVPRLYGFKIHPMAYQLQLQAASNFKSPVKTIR

IC50 [1]: < 100 nM
IC50 [2]: > 2500 nM
SMILES: CC(C)N1CCC(Nc2cc(Nc3cccc(Cl)c3)nc3c(/C=C4\NC(=O)NC4=O)cnn23)CC1 [Example Q5]

IC50 [1]: < 100 nM
SMILES: CN1CCN(CC2(CNc3cc(Nc4cccc(Cl)c4)nc4c(/C=C5\NC(=O)NC5=O)cnn34)CC2)CC1 [Example Y6]

IC50 [1]: < 10 nM
IC50 [2]: 877 nM
SMILES: O=C1NC(=O)/C(=C/c2cnn3c(NC4CC4)cc(NC4CCNCC4)nc23)N1 [Example W2]

IC50 [1]: < 1000 nM
PIM2: % inh […] [2]: 50.998%
SMILES: Cc1c(N2CCN(c3ncccc3C#N)CC2)nc2c(C=C3SC(=O)NC3=O)cnn2c1NC1CC1 [Example T46]

IC50 [1]: < 10 nM
IC50 [2]: 1950 nM
SMILES: C[C@@H](Nc1cc(NC2CC2)n2ncc(/C=C3\NC(=O)NC3=O)c2n1)C1CC1 [Example X2]

IC50 [1]: < 10 nM
IC50 [2]: > 2500 nM
SMILES: CNS(=O)(=O)c1cccc(-c2cc(NC3CC3)n3ncc(/C=C4\NC(=O)NC4=O)c3n2)c1 [Example Y3]

IC50 [1]: < 100 nM
IC50 [2]: > 2500 nM
SMILES: CC(C)(C)CC(=O)N1CCC(Nc2cc(Nc3cccc(Cl)c3)nc3c(/C=C4\NC(=O)NC4=O)cnn23)CC1 [Example S5]

IC50 [1]: < 1000 nM
IC50 [2]: 297 nM
SMILES: O=C1NC(=O)/C(=C/c2cnn3c([S+]([O-])Cc4ccccc4)cc(Nc4cccc(Cl)c4)nc23)N1 (stereo not drawn) [Example Z5]

IC50 [1]: < 1000 nM
IC50 [2]: 291 nM
SMILES: O=C1NC(=O)/C(=C/c2cnn3c(SCc4ccccc4)cc(-c4cccc(Cl)c4)nc23)N1 [Example Y5]

IC50 [1]: < 100 nM
IC50 [2]: > 2500 nM
SMILES: CC(=O)Nc1cccc(Nc2cc(NCC3CC3)n3ncc(/C=C4\NC(=O)NC4=O)c3n2)c1 [Example Y1]

IC50 [1]: < 1000 nM
PIM2: % inh […] [2]: 68.545%
SMILES: Cc1c(N2CCN(c3ncccc3C#N)CC2)nc2c(C=C3NC(=O)NC3=O)cnn2c1NC1CC1 [Example R46]

IC50 [1]: < 100 nM
SMILES: CC(C)(CO)CNc1cc(Nc2cccc(Cl)c2)nc2c(/C=C3\NC(=O)NC3=O)cnn12 [Example V6]

IC50 [1]: < 1000 nM
IC50 [2]: 2240 nM
SMILES: O=C1NC(=O)/C(=C/c2cnn3c(SCc4ccccc4)cc(Nc4cccc(Cl)c4)nc23)N1 [Example X5]

IC50 [1]: < 10 nM
IC50 [2]: > 2500 nM
SMILES: O=C1NC(=O)/C(=C/c2cnn3c(NC4CC4)cc(Nc4ccc(-n5cccn5)cc4)nc23)N1 [Example R1]

IC50 [1]: < 1000 nM
IC50 [2]: > 2500 nM
SMILES: O=C1NC(=O)/C(=C/c2cnn3c(NC4CCN(Cc5ccccn5)CC4)cc(Nc4cccc(Cl)c4)nc23)N1 [Example V5]

IC50 [1]: < 100 nM
IC50 [2]: > 2500 nM
SMILES: COC(=O)N1CCC(Nc2cc(Nc3cccc(Cl)c3)nc3c(/C=C4\NC(=O)NC4=O)cnn23)CC1 [Example T5]

IC50 [1]: < 100 nM
IC50 [2]: 2200 nM
SMILES: CC(C)CN1CCC(Nc2cc(Nc3cccc(Cl)c3)nc3c(/C=C4\NC(=O)NC4=O)cnn23)CC1 [Example R5]

IC50 [1]: < 1000 nM
SMILES: CC(C)C(CNc1cc(Nc2cccc(Cl)c2)nc2c(/C=C3\NC(=O)NC3=O)cnn12)N(C)C (stereo not drawn) [Example W6]

IC50 [1]: < 1000 nM
SMILES: CCOCC1(CNc2cc(Nc3cccc(Cl)c3)nc3c(/C=C4\NC(=O)NC4=O)cnn23)CC1 [Example X6]

IC50 [1]: < 100 nM
SMILES: NCc1cccc(Nc2cc(NCC3CC3)n3ncc(/C=C4\NC(=O)NC4=O)c3n2)c1 [Example Z1]

IC50 [1]: < 100 nM
SMILES: CC(C)(C)OC(=O)N1CCC(CNc2cc(Nc3cccc(Cl)c3)nc3c(/C=C4\NC(=O)NC4=O)cnn23)CC1 [Example T6]

IC50 [1]: < 100 nM
SMILES: O=C1NC(=O)/C(=C/c2cnn3c(NCC4(CN5CCOCC5)CC4)cc(Nc4cccc(Cl)c4)nc23)N1 [Example Z6]

IC50 [1]: < 100 nM
SMILES: O=C1NC(=O)/C(=C/c2cnn3c(Nc4cc[nH]n4)cc(Nc4cccc(Cl)c4)nc23)N1 [Example S6]

Further lines, the compound ahead of its results:

SMILES: CCN(CC)CCNc1cc(NC2CC2)n2ncc(/C=C3\SC(=O)NC3=O)c2n1 [Example O3]
IC50 [1]: < 100 nM
IC50 [2]: > 2500 nM

SMILES: O=C1NC(=O)/C(=C/c2cnn3c(NC4CC4)cc(-c4ccc(F)c(C(=O)NCCN5CCCC5)c4)nc23)N1 [Example E5]
IC50 [1]: < 100 nM
IC50 [2]: > 2500 nM

SMILES: O=C1NC(=O)/C(=C/c2cnn3c(NC4CC4)cc(Nc4cc(Cl)ccc4F)nc23)N1 [Example Q1]
IC50 [1]: < 10 nM
IC50 [2]: > 2500 nM

SMILES: CC(C)Nc1cc(Nc2cccc(Cl)c2)nc2c(/C=C3\NC(=O)NC3=O)cnn12 [Example F6]
IC50 [1]: < 100 nM
IC50 [2]: > 2500 nM

SMILES: CC(C)(C)OC(=O)N1CCCC1CNc1cc(Nc2cccc(Cl)c2)nc2c(/C=C3\NC(=O)NC3=O)cnn12 (stereo not drawn) [Example N6]
IC50 [1]: < 100 nM
IC50 [2]: > 2500 nM

SMILES: O=C1NC(=O)/C(=C/c2cnn3c([S+]([O-])Cc4ccccc4)cc(-c4cccc(Cl)c4)nc23)N1 (stereo not drawn) [Example A6]
IC50 [1]: < 100 nM
IC50 [2]: 209 nM

SMILES: Cc1nn2c(NC3CC3)cc(Nc3ccc(-n4cccn4)cc3)nc2c1C=C1NC(=O)NC1=O [Example 275, 5-((5-(4-(1H-pyrazol-1-yl)phenylamino)-7-(cyclopropylamino)-2-methylpyrazolo[1,5-a]pyrimidin-3-yl)methylene)imidazolidine-2,4-dione]
IC50 [1]: > 1000 nM
inhibition at […] ([2]; read-out: PIM2: % inh […], at 2.5 μM compound): 43.4%

SMILES: O=C1NC(=O)/C(=C/c2cnn3c(NC4CC4)cc(-c4ccnc(F)c4)nc23)S1 [Example I5]
IC50 [1]: < 1000 nM
IC50 [2]: 218 nM

SMILES: CC(CNc1cc(Nc2cc(Cl)ccc2F)nc2c(C=C3NC(=O)NC3=O)cnn12)N1CCOCC1 (racemic) [Example 515]
IC50 [1]: < 10 nM

SMILES: COc1cccc(Nc2cc(NC3CC3)n3ncc(/C=C4\NC(=O)NC4=O)c3n2)c1Cl [Example P1]
IC50 [1]: < 10 nM
IC50 [2]: > 2500 nM

SMILES: CN(C)C(=O)N[C@H]1CC[C@H](Nc2cc(NC3CC3)n3ncc(/C=C4\NC(=O)NC4=O)c3n2)CC1 [Example B3]
IC50 [1]: < 100 nM
IC50 [2]: 538 nM

SMILES: O=C1NC(=O)/C(=C/c2cnn3c(NCC4(CN5CCCC5)CC4)cc(Nc4cccc(Cl)c4)nc23)N1 [Example A7]
IC50 [1]: < 100 nM

SMILES: CN1CCCN(c2cc(NC3CC3)n3ncc(/C=C4\SC(=O)NC4=O)c3n2)CC1 [Example Q3]
IC50 [1]: < 100 nM
IC50 [2]: 2050 nM

SMILES: O=C1NC(=O)/C(=C/c2cnn3c(NCCN4CCOCC4)cc(Nc4cccc(Cl)c4)nc23)N1 [Example L6]
IC50 [1]: < 2000 nM
IC50 [2]: 2190 nM

SMILES: Cc1cc(-c2cc(NC3CC3)n3ncc(/C=C4\NC(=O)NC4=O)c3n2)cc(C)c1O [Example C5]
IC50 [1]: < 1000 nM
IC50 [2]: > 2500 nM

SMILES: O=C1NC(=O)/C(=C/c2cnn3c(NCC4CC4)cc(Nc4ccncc4)nc23)N1 [Example E2]
IC50 [1]: < 10 nM

SMILES: Cc1cccc(Nc2cc(NCC3CC3)n3ncc(/C=C4\NC(=O)NC4=O)c3n2)c1 [Example A2]
IC50 [1]: < 100 nM

SMILES: O=C1NC(=O)/C(=C/c2cnn3c(NCC4CC4)cc(Nc4ccc(Cl)cn4)nc23)N1 [Example H2]
IC50 [1]: < 10 nM

SMILES: O=C1NC(=O)/C(=C/c2cnn3c(NCC4CC4)cc(Nc4ccc(F)c(Cl)c4)nc23)N1 [Example D2]
IC50 [1]: < 100 nM

SMILES: O=C1NC(=O)/C(=C/c2cnn3c(NCC4CC4)cc(Nc4cccc(O)c4)nc23)N1 [Example B2]
IC50 [1]: < 100 nM

SMILES: O=C1NC(=O)/C(=C/c2cnn3c(NCC4CC4)cc(Nc4cccc(CN5CCOCC5)c4)nc23)N1 [Example C2]
IC50 [1]: < 100 nM

SMILES: CNC(=O)c1cccc(Nc2cc(NCC3CC3)n3ncc(/C=C4\NC(=O)NC4=O)c3n2)c1 [Example G2]
IC50 [1]: < 10 nM

SMILES: O=C1NC(=O)/C(=C/c2cnn3c(NCC4CC4)cc(Nc4ccc(Cl)cc4)nc23)N1 [Example I2]
IC50 [1]: < 100 nM

SMILES: O=C1NC(=O)/C(=C/c2cnn3c(NCC4CC4)cc(Nc4cccc(S(=O)(=O)N5CCCC5)c4)nc23)N1 [Example F2]
IC50 [1]: < 100 nM
